# Source: PubChem BioAssay (NCI)
#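 Cells were grown in 96-well plates and exposed to each compound for 48 hours at five concentrations; endpoints were interpolated linearly between bracketing concentrations, or set to the highest concentration if not reached. At the GI50, growth is halved. TGI denotes the concentration required for complete inhibition of growth.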
# Tests used:
# Assay in all cases: DTP human tumour cell line panel, 48 h
# 786-0 renal = system: 786-0 renal
# A498 renal = system: A498 renal
# A549 NSCLC = system: A549 NSCLC
# ACHN renal = system: ACHN renal
# BT-549 breast = system: BT-549 breast
# CAKI-1 renal = system: CAKI-1 renal
# CCRF-CEM leukemia = system: CCRF-CEM leukemia
# COLO 205 colon = system: COLO 205 colon
# DU-145 prostate = system: DU-145 prostate
# EKVX NSCLC = system: EKVX NSCLC
# HCC-2998 colon = system: HCC-2998 colon
# HCT-116 colon = system: HCT-116 colon
# HCT-15 colon = system: HCT-15 colon
# HL-60(TB) leukemia = system: HL-60(TB) leukemia
# HOP-62 NSCLC = system: HOP-62 NSCLC
# HOP-92 NSCLC = system: HOP-92 NSCLC
# HS 578T breast = system: HS 578T breast
# HT29 colon = system: HT29 colon
# IGROV1 ovarian = system: IGROV1 ovarian
# K-562 leukemia = system: K-562 leukemia
# KM12 colon = system: KM12 colon
# LOX IMVI melanoma = system: LOX IMVI melanoma
# M14 melanoma = system: M14 melanoma
# MALME-3M melanoma = system: MALME-3M melanoma
# MCF7 breast = system: MCF7 breast
# MDA-MB-231 breast = system: MDA-MB-231 breast
# MDA-MB-435 = system: MDA-MB-435
# MOLT-4 leukemia = system: MOLT-4 leukemia
# NCI-H226 lung = system: NCI-H226 lung
# NCI-H23 lung = system: NCI-H23 lung
# NCI-H460 lung = system: NCI-H460 lung
# NCI-H522 lung = system: NCI-H522 lung
# NCI/ADR-RES ovarian = system: NCI/ADR-RES ovarian
# OVCAR-3 ovarian = system: OVCAR-3 ovarian
# OVCAR-4 ovarian = system: OVCAR-4 ovarian
# OVCAR-5 ovarian = system: OVCAR-5 ovarian
# OVCAR-8 ovarian = system: OVCAR-8 ovarian
# PC-3 prostate = system: PC-3 prostate
# RPMI-8226 leukemia = system: RPMI-8226 leukemia
# RXF 393 renal = system: RXF 393 renal
# SF-268 CNS = system: SF-268 CNS
# SF-295 CNS = system: SF-295 CNS
# SF-539 CNS = system: SF-539 CNS
# SK-MEL-2 melanoma = system: SK-MEL-2 melanoma
# SK-MEL-28 melanoma = system: SK-MEL-28 melanoma
# SK-MEL-5 melanoma = system: SK-MEL-5 melanoma
# SK-OV-3 ovarian = system: SK-OV-3 ovarian
# SN12C renal = system: SN12C renal
# SNB-19 CNS = system: SNB-19 CNS
# SNB-75 CNS = system: SNB-75 CNS
# SR leukemia = system: SR leukemia
# SW-620 colon = system: SW-620 colon
# T-47D breast = system: T-47D breast
# TK-10 renal = system: TK-10 renal
# U251 CNS = system: U251 CNS
# UACC-257 melanoma = system: UACC-257 melanoma
# UACC-62 melanoma = system: UACC-62 melanoma
# UO-31 renal = system: UO-31 renal
smiles,measurement,setting,value
CC1(C)CC[C@]2(C(=O)O)CC[C@]3(C)[C@H](CC[C@@H]4[C@@]5(C)CCC(=O)C(C)(C)[C@@H]5CC[C@]43C)[C@H]2[C@H]1OC(=O)C(F)(F)F,GI50,786-0 renal,14.3 µM
same,TGI,786-0 renal,29.5 µM
same,GI50,A498 renal,15.7 µM
same,TGI,A498 renal,30.9 µM
same,GI50,A549 NSCLC,9.66 µM
same,TGI,A549 NSCLC,31.6 µM
same,GI50,ACHN renal,13.3 µM
same,TGI,ACHN renal,26.1 µM
same,GI50,BT-549 breast,9.3 µM
same,TGI,BT-549 breast,22.3 µM
same,GI50,CAKI-1 renal,12.8 µM
same,TGI,CAKI-1 renal,25.7 µM
same,GI50,CCRF-CEM leukemia,9.51 µM
same,TGI,CCRF-CEM leukemia,41.5 µM
same,GI50,COLO 205 colon,6.58 µM
same,TGI,COLO 205 colon,23.6 µM
same,GI50,DU-145 prostate,14.1 µM
same,TGI,DU-145 prostate,34 µM
same,GI50,EKVX NSCLC,14.5 µM
same,TGI,EKVX NSCLC,30.5 µM
same,GI50,HCC-2998 colon,10.7 µM
same,TGI,HCC-2998 colon,22.8 µM
same,GI50,HCT-116 colon,4.8 µM
same,TGI,HCT-116 colon,17.8 µM
same,GI50,HCT-15 colon,4.99 µM
same,TGI,HCT-15 colon,18.1 µM
same,GI50,HL-60(TB) leukemia,3.16 µM
same,TGI,HL-60(TB) leukemia,13.6 µM
same,GI50,HOP-62 NSCLC,13.2 µM
same,TGI,HOP-62 NSCLC,27.8 µM
same,GI50,HOP-92 NSCLC,8.08 µM
same,TGI,HOP-92 NSCLC,22.6 µM
same,GI50,HS 578T breast,20.3 µM
same,TGI,HS 578T breast,83.5 µM
same,GI50,HT29 colon,4.06 µM
same,TGI,HT29 colon,16.7 µM
same,GI50,IGROV1 ovarian,18.9 µM
same,TGI,IGROV1 ovarian,40.5 µM
same,GI50,K-562 leukemia,3.61 µM
same,TGI,K-562 leukemia,20.9 µM
same,GI50,KM12 colon,10.4 µM
same,TGI,KM12 colon,24.4 µM
same,GI50,LOX IMVI melanoma,5.91 µM
same,TGI,LOX IMVI melanoma,18.9 µM
same,GI50,M14 melanoma,8.34 µM
same,TGI,M14 melanoma,27 µM
same,GI50,MALME-3M melanoma,12.9 µM
same,TGI,MALME-3M melanoma,30.7 µM
same,GI50,MCF7 breast,5.02 µM
same,TGI,MCF7 breast,25.4 µM
same,GI50,MDA-MB-231 breast,13.5 µM
same,TGI,MDA-MB-231 breast,31.4 µM
same,GI50,MDA-MB-435,10.6 µM
same,TGI,MDA-MB-435,26.9 µM
same,GI50,MOLT-4 leukemia,4.22 µM
same,TGI,MOLT-4 leukemia,22.5 µM
same,GI50,NCI-H226 lung,13.5 µM
same,TGI,NCI-H226 lung,34 µM
same,GI50,NCI-H23 lung,11 µM
same,TGI,NCI-H23 lung,28.6 µM
same,GI50,NCI-H460 lung,7.65 µM
same,TGI,NCI-H460 lung,29.7 µM
same,GI50,NCI-H522 lung,12.6 µM
same,TGI,NCI-H522 lung,29.1 µM
same,GI50,NCI/ADR-RES ovarian,12.3 µM
same,TGI,NCI/ADR-RES ovarian,26.2 µM
same,GI50,OVCAR-3 ovarian,12.4 µM
same,TGI,OVCAR-3 ovarian,26.4 µM
same,GI50,OVCAR-4 ovarian,13.1 µM
same,TGI,OVCAR-4 ovarian,29.8 µM
same,GI50,OVCAR-5 ovarian,15.7 µM
same,TGI,OVCAR-5 ovarian,30.7 µM
same,GI50,OVCAR-8 ovarian,12.9 µM
same,TGI,OVCAR-8 ovarian,30.1 µM
same,GI50,PC-3 prostate,3.98 µM
same,TGI,PC-3 prostate,17.9 µM
same,GI50,RPMI-8226 leukemia,4.82 µM
same,TGI,RPMI-8226 leukemia,30.9 µM
same,GI50,RXF 393 renal,11.1 µM
same,TGI,RXF 393 renal,23.8 µM
same,GI50,SF-268 CNS,15.3 µM
same,TGI,SF-268 CNS,33.6 µM
same,GI50,SF-295 CNS,14.6 µM
same,TGI,SF-295 CNS,30.1 µM
same,GI50,SF-539 CNS,5.34 µM
same,TGI,SF-539 CNS,18.1 µM
same,GI50,SK-MEL-2 melanoma,14.1 µM
same,TGI,SK-MEL-2 melanoma,30.9 µM
same,GI50,SK-MEL-28 melanoma,13.6 µM
same,TGI,SK-MEL-28 melanoma,28.2 µM
same,GI50,SK-MEL-5 melanoma,8.11 µM
same,TGI,SK-MEL-5 melanoma,20.6 µM
same,GI50,SK-OV-3 ovarian,13.4 µM
same,TGI,SK-OV-3 ovarian,54 µM
same,GI50,SN12C renal,11.5 µM
same,TGI,SN12C renal,24.8 µM
same,GI50,SNB-19 CNS,13.8 µM
same,TGI,SNB-19 CNS,27.9 µM
same,GI50,SNB-75 CNS,26.4 µM
same,TGI,SNB-75 CNS,> 100 µM
same,GI50,SR leukemia,3.75 µM
same,TGI,SR leukemia,33.8 µM
same,GI50,SW-620 colon,11.6 µM
same,TGI,SW-620 colon,28.1 µM
same,GI50,T-47D breast,3.84 µM
same,TGI,T-47D breast,23.9 µM
same,GI50,TK-10 renal,16.9 µM
same,TGI,TK-10 renal,31.8 µM
same,GI50,U251 CNS,12.4 µM
same,TGI,U251 CNS,26.2 µM
same,GI50,UACC-257 melanoma,10.1 µM
same,TGI,UACC-257 melanoma,25.2 µM
same,GI50,UACC-62 melanoma,6.66 µM
same,TGI,UACC-62 melanoma,20.3 µM
same,GI50,UO-31 renal,13.7 µM
same,TGI,UO-31 renal,27 µM
